{"source": "patent US20080019968A1", "about": "“DETECTION, PREVENTION AND TREATMENT OF BREAST CANCER” (The scripps Reasearch Institute, priority 2004, published 2008)", "molecules": {"B1": {"name": "Ceruloplasmine (protein, UniProt P00450 20-1065, looked up)", "Ceruloplasmin": "KEKHYYIGIIETTWDYASDHGEKKLISVDTEHSNIYLQNGPDRIGRLYKKALYLQYTDETFRTTIEKPVWLGFLGPIIKAETGDKVYVHLKNLASRPYTFHSHGITYYKEHEGAIYPDNTTDFQRADDKVYPGEQYTYMLLATEEQSPGEGDGNCVTRIYHSHIDAPKDIASGLIGPLIICKKDSLDKEKEKHIDREFVVMFSVVDENFSWYLEDNIKTYCSEPEKVDKDNEDFQESNRMYSVNGYTFGSLPGLSMCAEDRVKWYLFGMGNEVDVHAAFFHGQALTNKNYRIDTINLFPATLFDAYMVAQNPGEWMLSCQNLNHLKAGLQAFFQVQECNKSSSKDNIRGKHVRHYYIAAEEIIWNYAPSGIDIFTKENLTAPGSDSAVFFEQGTTRIGGSYKKLVYREYTDASFTNRKERGPEEEHLGILGPVIWAEVGDTIRVTFHNKGAYPLSIEPIGVRFNKNNEGTYYSPNYNPQSRSVPPSASHVAPTETFTYEWTVPKEVGPTNADPVCLAKMYYSAVEPTKDIFTGLIGPMKICKKGSLHANGRQKDVDKEFYLFPTVFDENESLLLEDNIRMFTTAPDQVDKEDEDFQESNKMHSMNGFMYGNQPGLTMCKGDSVVWYLFSAGNEADVHGIYFSGNTYLWRGERRDTANLFPQTSLTLHMWPDTEGTFNVECLTTDHYTGGMKQKYTVNQCRRQSEDSTFYLGERTYYIAAVEVEWDYSPQREWEKELHHLQEQNVSNAFLDKGEFYIGSKYKKVVYRQYTDSTFRVPVERKAEEEHLGILGPQLHADVGDKVKIIFKNMATRPYSIHAHGVQTESSTVTPTLPGETLTYVWKIPERSGAGTEDSACIPWAYYSTVDQVKDLYSGLIGPLIVCRRPYLKVFNPRRKLEFALLFLVFDENESWYLDDNIKTYSDHPEKVNKDDEEFIESNKMHAINGRMFGNLQGLTMHVGDEVNWYLMGMGNEIDLHTVHFHGHSFQYKHRGVYSSDVFDIFPGTYQTLEMFPRTPGIWLLHCHVTDHIHAGMETTYTVLQNEDTKSG"}}, "key": {"[1]": {"tested_on": "antibodies in sera of metastatic breast cancer patients", "experiment": "Glycan array binding of sera of metastatic breast cancer patients", "design": "species or system human", "settings": "sera diluted 1:25; for binding of antibodies from breast cancer patients to glycans: 9 metastatic breast cancer patients, IgG, IgM and IgA detected; for level of serum antibodies against the glycan in MBC patients compared to healthy individuals: 9 MBC patients vs ten healthy individuals", "method": "Individual (not pooled) sera were collected from 9 patients who were diagnosed with metastatic breast cancer (MBC). Blood samples were collected before treatment, so that therapeutic intervention would not interfere with patient immune responses. One patient with breast cancer but with good prognosis (IDC, Stage 1) was also included in the study. As control, or “healthy” sera, sera from ten healthy individuals, 5 female and 5 male, with no known malignancies was collected.\nSera were diluted 1:25 with PBS containing 3% BSA, and placed on the glycan array slide in humidified chamber at room temperature for 90 min. The glycan array slide was then rinsed gently with PBS/0.05% Tween, incubated with biotinylated goat antibody against human IgG, IgM and IgA, rinsed in PBS/0.05% Tween, and incubated with streptavidin-Alexa488 fluorescent dye. Following rinses in PBS/0.05% Tween and H2O, glycan array slides were dried and scanned using the commercial DNA array scanner. […] Signal to background was typically greater 50:1 and no background subtractions were performed. Data were plotted using MS Excel software."}, "Con A": {"target": "Con A (Canavalia ensiformis, UniProt P02866)", "settings": "printing times up to 5 hours", "protocol": "Glycan Binding Protein binding assay. Printed slides were analyzed without any further modification of the surface. Slides were incubated in either a one step procedure with labeled proteins, or a sandwich procedure in which the bound glycan binding protein (GBP) was overlaid with labeled secondary antibodies or GBP's pre-complexed with labeled antibodies. GBP's were added at a concentration of 5-50 μg/mL in buffer (usually PBS containing 0.005-0.5% Tween-20). Secondary antibodies (10 μg/mL in PBS) were overlaid on bound GBP. GBP-antibody pre-complexes were prepared in a molar ratio of 1:0.5:0.25 (5-50 μg/mL) for GBP:2° antibody:3° antibody, respectively (15 min on ice). […] Slides were subsequently washed by successive rinses in (i) PBS-Tween (0.05%), (ii) PBS and (iii) de-ionized water, then immediately subjected to imaging.\nImage acquisition and signal processing. Fluorescence intensities were detected using a ScanArray 5000 (Perkin Elmer, Boston, Mass.) confocal scanner and image analyses were carried out using ImaGene image analysis software (BioDiscovery Inc, El Segundo, Calif.).\nBinding of fluorescein-labeled concanavalin A (con A) was used as a measure of ligand coupling."}, "[2]": {"tested_on": "Human anti-HIV 2G12 monoclonal antibody", "experiment": "Glycan array binding of 2G12", "settings": "2G12 (30 μg/mL) pre-complexed with goat anti-human-IgG-FITC (15 μg/mL)", "description": "Glycan array fabrication.\nGlycan Binding Protein binding assay.\nImage acquisition and signal processing. […] Data were plotted using MS Excel software."}, "chST6GalNAc-I": {"target": "T1, chST6GalNAc-I (Gallus gallus, UniProt Q92183)", "T1 construct": "made in house; host or cells: insect cells", "T1 sequence (Q92183 whole entry)": "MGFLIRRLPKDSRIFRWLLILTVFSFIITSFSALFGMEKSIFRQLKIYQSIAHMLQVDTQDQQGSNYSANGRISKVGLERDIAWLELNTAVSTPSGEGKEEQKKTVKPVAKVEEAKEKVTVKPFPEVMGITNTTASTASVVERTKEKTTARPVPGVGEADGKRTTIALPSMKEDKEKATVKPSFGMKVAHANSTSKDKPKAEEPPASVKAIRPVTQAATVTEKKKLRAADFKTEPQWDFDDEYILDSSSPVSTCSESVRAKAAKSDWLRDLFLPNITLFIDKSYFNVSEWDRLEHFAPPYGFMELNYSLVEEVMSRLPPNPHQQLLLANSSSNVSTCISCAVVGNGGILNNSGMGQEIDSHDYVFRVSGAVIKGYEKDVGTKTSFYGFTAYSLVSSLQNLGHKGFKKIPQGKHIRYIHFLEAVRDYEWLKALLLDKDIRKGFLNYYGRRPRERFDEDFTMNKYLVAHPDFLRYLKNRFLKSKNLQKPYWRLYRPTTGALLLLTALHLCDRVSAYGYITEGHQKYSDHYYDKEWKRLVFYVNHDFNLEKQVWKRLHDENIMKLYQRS", "experiment": "chST6GalNAc-I activity on small acceptor molecules", "assay_type": "biochemical, chicken", "settings": "α-D-galacto derivatives as acceptors", "description": "The inventors have previously reported the cloning, expression, and characterization of chicken ST6GalNAc-I and its use in preparative synthesis of the O-linked sialoside antigens, STn-, α(2-6)SiaT-, α(2-3)SiaT- and Di-SiaT-antigen. Blixt, O.; Allin, K.; Pereira, L.; Datta, A. and Paulson, J. C., J. Am. Chem. Soc. 2002, 124, 5739-5746. Briefly, the recombinant enzyme was expressed in insect cells and purified by CDP-sepharose affinity chromatography to generate approximately 10 U/L of cell culture."}}, "data": [{"molecule": "NJa6ANa#sp2 Neu5Gc6GalNAc (STn) [glycan 155]", "values": [{"measurement": "binding of antibodies from breast cancer patients to glycans", "setting": "[1]", "value": "bind"}]}, {"molecule": "NNa6Ab4GNb3Ab4[Fa3]GNb3Ab4[Fa3]GNb#sp1 6Sia-LacNAc-LeX-LeX [glycan 188]", "values": [{"measurement": "binding of antibodies from breast cancer patients to glycans", "setting": "[1]", "value": "will also bind"}]}, {"molecule": "Ma2Ma3[Ma2Ma6]Ma#sp3 [glycan 136]", "values": [{"measurement": "variation in maximal binding of con A", "setting": "Con A", "value": "less than 10%"}, {"measurement": "binding of 2G12 to glycans on the array", "setting": "[2]", "value": "strong binding"}, {"measurement": "Rel. spec. (relative binding activity of 2G12)", "setting": "[2]; mannose containing glycans on the array", "value": "+++ (+++ >25,000)"}]}, {"molecule": "Ab3ANb4[NNa3]Ab4Gb#sp1 GM1 [glycan 58]", "values": [{"measurement": "level of serum antibodies against the glycan in MBC patients compared to healthy individuals", "setting": "[1]", "value": "higher than in the healthy individuals"}, {"measurement": "binding of antibodies from breast cancer patients to glycans", "setting": "[1]", "value": "bind"}]}, {"molecule": "Man-9#aa Man9-aminoacid [glycan 145]", "values": [{"measurement": "binding of 2G12 to glycans on the array", "setting": "[2]", "value": "smaller level of binding"}]}, {"molecule": "Fa2Ab3Anb3Aa4Ab4G#sp3 Globo-H [glycan 97]", "values": [{"measurement": "level of serum antibodies against the glycan in MBC patients compared to healthy individuals", "setting": "[1]", "value": "higher than in the healthy individuals"}, {"measurement": "binding of antibodies from breast cancer patients to glycans", "setting": "[1]", "value": "bind"}]}, {"molecule": "Fa2Ab4GNb3Ab4GNb3Ab4GNb#sp1 H-type2-LacNAc-LacNAc [glycan 107]", "values": [{"measurement": "binding of antibodies from breast cancer patients to glycans", "setting": "[1]", "value": "will also bind"}]}, {"molecule": "(Ab4GNb)3#sp1 Tri-LacNAc [glycan 9]", "values": [{"measurement": "binding of antibodies from breast cancer patients to glycans", "setting": "[1]", "value": "will also bind"}]}, {"molecule": "Ab4GNb3Ab4GNb#sp1 LacNAc-LacNAc [glycan 76]", "values": [{"measurement": "binding of antibodies from breast cancer patients to glycans", "setting": "[1]", "value": "will also bind"}]}, {"molecule": "CC(=O)N[C@H]1C(O)O[C@H](CO)[C@H](O)[C@@H]1O", "note": "(stereo partly drawn) [D-GalNAc]", "values": [{"measurement": "chST6GalNAc-I activity, cpm", "setting": "chST6GalNAc-I", "value": 0, "unit": "cpm"}, {"measurement": "chST6GalNAc-I activity, nmol/mg x min^−1", "setting": "chST6GalNAc-I", "value": 0.00, "unit": "nmol/mg x min^−1"}]}, {"molecule": "NNa6Ab4GNb3Ab4GNb#sp1 6SiaLacNAc-LacNAc [glycan 189]", "values": [{"measurement": "binding of antibodies from breast cancer patients to glycans", "setting": "[1]", "value": "will also bind"}]}, {"molecule": "NNa3Ab4[Fa3]GNb3Ab4GNb#sp1 SLeXLacNAc [glycan 174]", "values": [{"measurement": "binding of antibodies from breast cancer patients to glycans", "setting": "[1]", "value": "will also bind"}]}, {"molecule": "GNb3Ab4Gb#sp1 LNT-2 [glycan 123]", "values": [{"measurement": "level of serum antibodies against the glycan in MBC patients compared to healthy individuals", "setting": "[1]", "value": "higher than in the healthy individuals"}, {"measurement": "binding of antibodies from breast cancer patients to glycans", "setting": "[1]", "value": "bind"}]}, {"molecule": "NNa3Ab4GNb3Ab4GNb#sp1 3′SialylDiLacNAc [glycan 179]", "values": [{"measurement": "binding of antibodies from breast cancer patients to glycans", "setting": "[1]", "value": "will also bind"}]}, {"molecule": "Ab4GNb3Ab4[Fa3]GNb3Ab4[Fa3]GNb#sp1 LacNAc-LeX-LeX [glycan 73]", "values": [{"measurement": "binding of antibodies from breast cancer patients to glycans", "setting": "[1]", "value": "will also bind"}]}, {"molecule": "NNa6ANa#sp2 6SiaβGalNAc [glycan 190]", "values": [{"measurement": "level of serum antibodies against the glycan in MBC patients compared to healthy individuals", "setting": "[1]", "value": "significantly higher levels"}, {"measurement": "binding of antibodies from breast cancer patients to glycans", "setting": "[1]", "value": "bind"}]}, {"molecule": "NNa3Ab4GNb3Ab4GNb3Ab4GNb#sp1 3′Sialyl-tri-LacNAc [glycan 180]", "values": [{"measurement": "binding of antibodies from breast cancer patients to glycans", "setting": "[1]", "value": "will also bind"}]}, {"molecule": "GNb3Ab4GNb#sp1 GlcNAcβ3LacNAc [glycan 124]", "values": [{"measurement": "binding of antibodies from breast cancer patients to glycans", "setting": "[1]", "value": "will also bind"}]}, {"molecule": "Fa2Ab4GNb3Ab4GNb#sp1 H-type-2-LacNAc [glycan 106]", "values": [{"measurement": "binding of antibodies from breast cancer patients to glycans", "setting": "[1]", "value": "will also bind"}]}, {"molecule": "B1", "values": [{"measurement": "level of serum antibodies against the glycan in MBC patients compared to healthy individuals", "setting": "[1]", "value": "significantly higher levels"}, {"measurement": "binding of antibodies from breast cancer patients to glycans", "setting": "[1]", "value": "bind"}]}]}
